Experimental data taken from paper PMC8427973, “Regulation of the HTRA2 Protease Activity by an Inhibitory Antibody-Derived Peptide Ligand and the Influence on HTRA2-Specific Protein Interaction Networks in Retinal Tissues” (Biomedicines, 2021).

What was measured:
[1] = target: T1, recombinant HTRA2 protein (Homo sapiens, UniProt O43464); assay: HTRA2 protease activity assay with fluorescent H2-optimal substrate; format: biochemical; conditions: for Average degradation rate of the optimal substrate H2 by HTRA2 (enzymatic reaction rate per minute): pH 8.0, RT, untreated positive control 229 U/min
T1 construct: 6xHis (C); purchased Novoprotein Scientific INC., Summit, NJ, USA
T1 sequence (O43464 134-458): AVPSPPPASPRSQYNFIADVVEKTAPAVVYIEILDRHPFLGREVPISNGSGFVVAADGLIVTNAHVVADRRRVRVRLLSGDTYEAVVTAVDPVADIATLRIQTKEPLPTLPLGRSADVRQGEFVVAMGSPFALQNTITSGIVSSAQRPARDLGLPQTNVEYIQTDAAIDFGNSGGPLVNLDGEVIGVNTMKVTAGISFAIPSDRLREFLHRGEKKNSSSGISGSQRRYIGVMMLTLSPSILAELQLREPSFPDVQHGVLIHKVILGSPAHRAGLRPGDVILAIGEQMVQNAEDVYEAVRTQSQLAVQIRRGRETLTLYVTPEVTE
Procedure: The HTRA2 protease activity assay was performed as described by Martins et al. (2003), but with some slight modifications. The experiment was performed with 100 nM recombinant HTRA2 protein (Novoprotein Scientific INC., Summit, NJ, USA) in a protease assay buffer (50 mM tris(hydroxymethyl)-aminomethane (TRIS), 0.5 mM ethylenediaminetetraacetic acid (EDTA), and 1 mM dithiothreitol (DTT), pH 8.0) containing 10 µM H2-optimal substrate (Innovagen AB, Lund, Sweden). The H2-optimal substrate is commonly used to measure the protease activity of HTRA2 and consists of a structural quencher and a fluorophore unit. The cleavage of the substrate leads to the disruption of the quencher/fluorophore complex and the degradation rate can be measured by fluorescence. The different sample groups were treated with 50 µM PDZ-Opt, 50 µM PDZ-Sub, 50 µM synthetic CDR1 peptide, or 30 µM UCF-101, respectively. The drug compound UCF-101 is an inhibitor of the catalytic domain of HTRA2 and was purchased from Sigma Aldrich (Darmstadt, Germany). The concentrations of the peptide ligands for the HTRA2 protease activity assay were chosen from the previous publication. The concentration of UCF-101 was determined to be optimal from the preliminary experiments. In addition, a positive control containing only 100 nM recombinant HTRA2 and a negative control (only protease assay buffer) were included in this experiment. All of the sample groups were incubated for 1 h at 37 °C to determine the maximum degradation rate of HTRA2. For the analysis of the enzymatic reaction rate of HTRA2, all samples were measured subsequently after the addition of the 10 µM H2-optimal substrate at RT. Fluorescence was monitored on a Spark® 10 M multimode microplate-reader (Tecan Trading AG, Männedorf, Switzerland) with an excitation at 320 nm and a fluorescence emission at 405 nm. The fluorescence background of the substrate was substracted from the fluorescence intensities of the different the sample groups to normalize the data.
To determine the proteolytic activity of HTRA2 we used the fluorescent H2 optimal substrate developed by Martins et al. (2003). The optimal substrate H2 encoded a short specific amino acid sequence, which is preferentially cleaved by HTRA2, and was also modified with a fluorescent dye and quencher. […] Under physiological conditions, the proteolytic activity of HTRA2 is suppressed by the C-terminal PDZ domain, which blocks the access of potential substrates to the catalytic domain by steric hindrance. The binding of short hydrophobic polypeptides to the allosteric PDZ domain can induce specific conformational changes of HTRA2 and are able to regulate its proteolytic activity. Therefore, Martins et al. (2003) specifically designed the peptide ligands PDZ-Opt (GQYYFV) and PDZ-Sub (GGIRRV), which are known to increase the proteolytic activity of HTRA2 in this assay.

[2] = tested on: HTRA2-specific interaction partners FNLA, NCKAP1, POTEE, PSMC1, SEC13; assay: Targeted MS analysis (accurate inclusion mass screening, AIMS) of HTRA2 Co-IP eluates; parameters: species or system house swine (Sus scrofa); conditions: repeated Co-IP, n = 3 biological replicates, Figure S3, CDR p < 0.05, UCF-101 p > 0.05
Text: Thereby, the peptides of interest were listed in the software inclusion list and the LTQ Orbitrap XL MS system only required MS/MS scans of the parent ions if the listed peptide was detected with an accurate mass and charge state. […] The selected peptides needed to be fully tryptic with a maximum of one missed cleavage, as described earlier. For this experiment, we repeated the Co-IP of the HTRA2-specific protein interaction partners ± treatments (see method Section 2.4) and subjected the respective eluate fractions to further in-solution trypsin digestion, as described elsewhere. In this case, the LTQ Orbitrap XL MS system was coupled online to an EASY-nLC 1200 system (Thermo Fisher Scientific, Rockford, IL, USA) using a PepMap C18 column system (75 µm × 500 mm; Thermo Fisher Scientific, Rockford, IL, USA). The dynamic exclusion mode was applied as follows: repeat count = 3, repeat duration = 30 s, exclusion size list = 100, exclusion time = 180 s, and the exclusion mass width ± 10 ppm. Protein identification and quantification were performed as described in Section 2.7.
For further validation of the HTRA2-specific interaction partners, we performed a targeted MS analysis via accurate inclusion mass screening (AIMS) technology. […] This time, the LC-MS system “only” recorded the unique peptide sequences of the previously identified HTRA2 interaction partners. […]

[3] = tested on: HTRA2; conditions: immunoprecipitation experiments; cited from earlier work
Text: The mitochondrial serine protease HTRA2 has many versatile biological functions ranging from being an important regulator of apoptosis to being an essential component for neuronal cell survival and mitochondrial homeostasis. Loss of HTRA2 protease function is known to cause neurodegeneration, whereas overactivation of its proteolytic function is associated with cell death and inflammation.

[4] = tested on: retinal ganglion cells (RGCs); conditions: cited from earlier work
Text: However, in a recent study of our group we identified the protein HTRA2 as a high-affinity interaction partner of the synthetic peptide […] [16]. Thereby, this synthetic peptide encodes a complementary-determining region 1 (CDR1) of polyclonal antibody molecules, which was originally identified as a potential biomarker candidate in primary-open angle glaucoma (POAG) patients.

| Compound | Average degradation rate of the optimal substrate H2 by HTRA2 (enzymatic reaction rate per minute) ([1]; 30 µM UCF-101, 100 nM recombinant HTRA2, 10 µM H2-optimal substrate) | Abundances of the co-enriched target proteins FNLA, NCKAP1, POTEE, PSMC1 and SEC13 compared with the HTRA2 group [2] | Decrease of the average degradation rate of the optimal substrate H2 compared with the untreated positive control ([1]; 50 µM peptide, 100 nM HTRA2, 10 µM substrate, RT) | Average degradation rate of the optimal substrate H2 by HTRA2 (enzymatic reaction rate per minute) ([1]; 50 µM peptide, 100 nM recombinant HTRA2, 10 µM H2-optimal substrate, fluorescence ex 320 nm / em 405 nm) | Maximum degradation rate of the H2 optimal substrate by HTRA2 ([1]; 50 µM peptide, 1 h at 37 °C, n = 3, Figure 1C) | Inhibition of the proteolytic activity of HTRA2 ([1]; specific protease function assay, p < 0.01 (abstract)) | Affinity for the target protein HTRA2 [3] | Effect on retinal ganglion cells (RGCs) in an organ culture model for glaucoma [4] |
| --- | --- | --- | --- | --- | --- | --- | --- | --- |
| O=C1C(=Cc2ccc(-c3ccccc3[N+](=O)[O-])o2)C(=O)N(c2ccccc2)C(=S)N1c1ccccc1 [UCF-101, reference compound] | 0 U/min | slight decrease | – | – | – | – | – | – |
| ASGYTFTNYGLSWVR [CDR, synthetic peptide encoding a complementary-determining region 1 (CDR1) of polyclonal antibody molecules] | – | significantly diminished | around 45% | 127 U/min | significantly decreased | up to 50% | high affinity | neuroprotective effects |
